Key:
BCL6 BTB-POZ domain = conditions: read-out: potency on BCL6 BTB-POZ domain; cited from earlier work
[1] = Chromatographic log D / property forecast index; format: physicochemical
[2] = tested on: TNP-specific IgM and IgG responses; experiment: TNP-KLH immunization model, serum anti-TNP antibodies; format: in vivo, mouse
Experimental: Male CD1 mice (30–40 g, 8–9 weeks of age) were randomized into study treatment groups, housed individually and allowed to acclimatize under standard laboratory conditions for a minimum of 5 days prior to commencement of the study. Mice received food and water ad libitum. The experiment was performed in a certified dedicated in vivo experimental laboratory at the GlaxoSmithKline Medicines Research Centre, Stevenage, United Kingdom. The four treatment groups were (1) unimmunized and untreated (naive group) (n = 4); (2) intraperitoneal vehicle (n = 13), (3) GSK137 15 mg/kg (n = 14), and (4) GSK137 30 mg/kg (n = 14). Groups (2) to (4) were given intraperitoneal immunization with TNP–KLH (100 μg) on day 0, vehicle was 1% methylcellulose in water + 0.1% sodium lauryl sulphate, and compound or vehicle was given to groups (2) to (4) by oral gavage three times per day from day −1 to day +12. Blood samples were collected by tail vein for measurement of compound, IgM and IgG levels on days 0, 5, 8, and 12 ahead of immunization/first daily dose. On day 8, blood samples were also taken (n = 7) at 0.5, 1.5, 3, 5, or 7 h after first daily dose. On day 12, spleens were collected, weighed, and placed into Dulbecco's modified Eagle's medium on wet ice for analysis by flow cytometry.
For antibody measurements, TNP–bovine serum albumin–coated plates were blocked, and then, standards or serum samples diluted 1:1000 or 1:2500 were incubated for 2 h at room temperature before biotinylated antimouse IgG or IgM antibodies were allowed to bind for 1 h at room temperature and detected using streptavidin-bound horseradish peroxidase incubated for 30 min, followed by the addition of 3,3′,5,5′-tetramethylbenzidine substrate for 15 min. The reaction was stopped, and the plates read at 450 nm by spectrophotometry. Plates were washed between each incubation step to remove unbound reagent. Data analysis was carried out in GraphPad Prism 5 (GraphPad Software, Inc) software using a four-parameter logistic fit of the standards response.

splenic germinal centers = experiment: Spleen immunohistochemistry of germinal centers; format: in vivo, mouse
Experimental: Immunohistochemistry of GCs in spleens was obtained from a pilot experiment to test immunization conditions carried out at the University of Leicester using groups of C57BL/6J mice. One group of mice was immunized with TNP-KLH (100 μg) followed by treatment with GSK137 15 mg/kg by oral gavage three times per day from day -1 to day +12 (n = 3), whereas the other was treated with vehicle by oral gavage three times per day from day -1 to day +12 following immunization (n = 6). Formalin-fixed paraffin-embedded sections of mouse spleen were stained with antimouse B220/CD45R (BD Biosciences; catalog no. 550286), […] (Abcam; ab32064), and anti-Ki67 (Abcam; ab15580) antibodies using Opal Multiplex IHC detection kit (NEL810001KT; Akoya Biosciences). The sections were counterstained with 4',6-diamidino-2-phenylindole for 5 min and mounted with ProLong Diamond Antifade mountant (Invitrogen; P36970). Images were obtained using Vectra Polaris multicolor fluorescence scanner (Akoya Biosciences). Quantification was carried out by inForm image analysis software (Akoya Biosciences). Normality tests were carried out for the B220^+Ki67^+ and […]^+ data. Both datasets were normally distributed, and accordingly, statistical significance was determined by unpaired t test.

Structure (SMILES)	IC50 (BCL6 BTB-POZ domain)	chromatographic logD ([1]; determined chromatographically, read-out: Chrom LogD)	PFI (property forecast index) ([1]; log D modified for the number of aromatic rings)	reduction of mean TNP-specific IgM levels vs vehicle ([2]; 15 mg/kg orally TID, day 12, p = 0.0027)	reduction of mean TNP-specific IgG levels vs vehicle ([2]; 15 mg/kg orally TID, day 12, p = 0.0056)	reduction of mean TNP-specific IgM levels vs vehicle ([2]; 30 mg/kg orally TID, day 12, p < 0.0001)	reduction of mean TNP-specific IgG levels vs vehicle ([2]; 30 mg/kg orally TID, day 12, p = 0.0023)	inhibition of TNP-specific IgM level ([2]; 15 and 30 mg/kg, day 5 or day 8)	inhibition of serum TNP-specific IgG levels ([2]; 15 and 30 mg/kg, day 8)	fraction of B220+ cells expressing clPARP within splenic B-cell follicles vs control (splenic germinal centers; 15 mg/kg)	number of GCs per follicle (mean ± SD) (splenic germinal centers; 15 mg/kg orally TID, C57BL/6J mice, vehicle 0.5 ± 0.11, p = 0.04)	numbers of B220+Ki-67+ cells within each GC vs vehicle (splenic germinal centers; 15 mg/kg, unpaired t test, p = 0.01)
CNC(=O)COc1cc2cc(Nc3nc(N4C[C@H](C)C[C@H](C)C4)ncc3Cl)ccc2n(C)c1=O [BI3802, reference compound]	< 3 nM	–	–	–	–	–	–	–	–	–	–	–
Cc1ncccc1[C@H]1C[C@@H](c2cccc3nc(N)ccc23)Nc2c(F)cnn21 [GSK137, 5-((5S,7R)-3-Fluoro-7-(2-methylpyridin-3-yl)-4,5,6,7-tetrahydropyrazolo[1,5-a]pyrimidin-5-yl)quinolin-2-amine]	–	2.3	6.3	43%	58%	58%	66%	did not inhibit	did not inhibit	no significant difference	0.27 ± 0.06	significant reductions

— PMC8350397, “GSK137, a potent small-molecule BCL6 inhibitor with in vivo activity, suppresses antibody responses in mice” (The Journal of Biological Chemistry, 2021)
